Values quoted from earlier work as cited in patent US11752221B2, “Brush-arm star polymer imaging agents and uses thereof” (priority 2017, dated 2023).
Several values for one entry are separate records, joined by “and”; a condition that tells them apart may be missing. Equal entries are not always repeated. Where two headings read alike, the source gives them in different places.

Columns and labels:
[1] = 0.2 mM nitroxide, 4.0 mM Asc
[2] = earlier studies
[3] = system: subcutaneous C26 tumors; settings: 0.23 mmol Gd/kg iv dose, after 4 hours

Structure (SMILES) | Initial kinetics (<1 h) k × 10^4 ([1]; 0.0 mM GSH, data used IPH) | Initial kinetics (<1 h) k′ × 10^4 ([1]; 0.0 mM GSH, data used IPH) | Initial kinetics Avg k × 10^4 ([1]; 0.0 mM GSH, data used IPH) [M^−1 s^−1] | Initial kinetics (<1 h) k × 10^4 ([1]; 0.0 mM GSH, data used PH) | Initial kinetics (<1 h) k′ × 10^4 ([1]; 0.0 mM GSH, data used PH) | Initial kinetics Avg k × 10^4 ([1]; 0.0 mM GSH, data used PH) [M^−1 s^−1] | Late kinetics (>1 h) k × 10^4 ([1]; 0.0 mM GSH, data used PH) [M^−1 s^−1] | Late kinetics (>1 h) k′ × 10^4 ([1]; 0.0 mM GSH, data used PH) [s^−1] | Initial kinetics (<1 h) k × 10^4 ([1]; 5.0 mM GSH, data used IPH) | Initial kinetics (<1 h) k′ × 10^4 ([1]; 5.0 mM GSH, data used IPH) | Initial kinetics Avg k × 10^4 ([1]; 5.0 mM GSH, data used IPH) [M^−1 s^−1] | Initial kinetics (<1 h) k × 10^4 ([1]; 5.0 mM GSH, data used PH) | Initial kinetics (<1 h) k′ × 10^4 ([1]; 5.0 mM GSH, data used PH) | Initial kinetics Avg k × 10^4 ([1]; 5.0 mM GSH, data used PH) [M^−1 s^−1] | r1 (per-chex for chex polymers) [2] [mM⁻¹ s⁻¹] | contrast enhancement of tumor [3]
CC1(C)CC(C(=O)O)C(C)(C)N1[O] (stereo not shown) [3-CP, 3-carboxy-2,2,5,5-tetramethyl-1-pyrrolidinyloxy] | 636.8 M^−1 s^−1 and 624.5 M^−1 s^−1 and 614.8 M^−1 s^−1 | 2.547 s^−1 and 2.498 s^−1 and 2.459 s^−1 | 625 ± 22 | 636.0 M^−1 s^−1 and 599.0 M^−1 s^−1 and 597.3 M^−1 s^−1 | 2.504 s^−1 and 2.396 s^−1 and 2.389 s^−1 | 611 ± 44 | 295 | 1.18 | 608.8 M^−1 s^−1 and 609.6 M^−1 s^−1 and 605.6 M^−1 s^−1 | 2.435 s^−1 and 2.438 s^−1 and 2.423 s^−1 | 608.0 ± 4.2 | 590.3 M^−1 s^−1 and 602.4 M^−1 s^−1 and 615.2 M^−1 s^−1 | 2.361 s^−1 and 2.410 s^−1 and 2.461 s^−1 | 602.6 ± 25 | 0.14 | 
O=C([O-])CN(CCN(CC(=O)[O-])CC(=O)O)CCN(CC(=O)[O-])CC(=O)O.[Gd+3] [Gd-DTPA] |  |  |  |  |  |  |  |  |  |  |  |  |  |  |  | negligible contrast enhancement
